The test system of assay [1] is human lung (A549) carcinoma cell line. Nature of the assay: Cell viability assay in A549 cells. The assay is classed as cell-based. The settings on record: for cell viability / potency relative to KG5 (cell viability EC50s): A549; for EC50: A549 lung cancer cells.
The test system of assay [2] is human breast (T47D) carcinoma cell line. The experiment in a line: Cell viability assay in T47D cells. The assay is classed as cell-based. To be noted: for cell viability / potency relative to KG5 (cell viability EC50s): T47D; for EC50: T47D breast cancer cells.
Assay [3] relates to human breast (MDA-MB-231) carcinoma cell line. The experiment in a line: Cell viability assay in MDA-MB-231 cells. It counts as cell-based. To be noted: for cell viability / potency relative to KG5 (cell viability EC50s): MDA-MB-231; for EC50: MDA-MB-231 breast cancer cell viability assays.
Assay [4] has as its system A549 cells. Nature of the assay: Cell proliferation assay in A549 cells. The assay is classed as cell-based, human.
Assay [5] relates to XPA-1 cells. Nature of the assay: Cell cycle analysis, bright field and confocal microscopy of XPA-1 cells. To be noted: XPA-1 cells, 20 hours. The assay is classed as cell-based, human. The method, then: FIG. 38. […] FIG. 38(a) Bright field images (scale bar, 20 μm), cell cycle analysis and confocal microscopy images (scale bar, 10 μm, laminB in red and DNA in blue) of XPA-1 cells treated for 20 hours with the allosteric RAF inhibitor KG5, the ATP-competitive inhibitor Sorafenib, the MEK inhibitor PD0325901, the control compound KG1 at 5 μM or paclitaxel at 200 nM. Cells were harvested after 20 hours and the cell cycle stage was determined by flow cytometry and confocal microscopy. White arrows indicate cells arrested at pro-metaphase. Scale bars, 10 μm. FIG. 38(b) Representative confocal microscopy images of untreated XPA-1 tumor cells undergoing mitosis (left image) and XPA-1 cell arrested with KG5 at pro-metaphase (right image). Cells were stained with α-tubulin in red and DNA in blue. Scale bar, 10 μm. FIG. 38(c) XPA-1 cells transfected with a vector control or active MEK were treated with 1 μM KG5 for 20 hours or left untreated and the G2/M population was quantified by flow cytometry. Error bars represent s.d. (n=3); * two tailed p value=0.00063 using a Mann Whitney U test. FIG. 38(d) Immunoblot analysis of XPA-1 cells untreated or treated with 1 μM KG5 for 18 hours. Data are representative of four independent experiments. […] Error bars represent s.d. (n=3); * two tailed p value=0.010 using a Mann Whitney U test. Inset, Immunoblot analysis of HCT-116 cells untreated or treated with 1 μM KG5 for 18 hours.
FIG. 39. […] FIG. 39 graphically illustrates cell cycle analysis of XPA-1 cells treated with the allosteric RAF inhibitor KG5, the microtubule stabilizer paclitaxel, or the ATP-competitive RAF inhibitors sorafenib, L-779450, GW 5074, and ZM-336372. Cells were harvested after 6, 18, 24, 48 and 72 hours and the percentages of cells in G2/M and SubG1 were determined by flow cytometry. Data are representative of three independent experiments.
Cell cycle analysis was performed by flow cytometry following propidium iodide staining. Briefly, cells were harvested, fixed with ice cold methanol, treated for 45 min with 10 μg/ml of RNase and resuspended in PBS containing 10 μg/ml of PI, and analyzed by flow cytometry. Cell cycle analysis was performed in cells treated for 18 hours with the allosteric RAF inhibitor KG5, the ATP-competitive RAF inhibitors: sorafenib, L-779450, GW5074, and ZM-336372, the MEK inhibitor (PD0325901) at […] concentration or paclitaxel at 100 nM.

The target in assay [6] is CRAF (Homo sapiens, UniProt P04049). Nature of the assay: CRAF localization to the mitotic spindle, confocal microscopy of XPA-1 cells. The assay is classed as cell-based. On the set-up: total CRAF and total MEK of lysates from XPA-1 cells treated with PD0325901, Sorafenib, L-779450, PLX4720, KG5 or KG1; endogenous in cells; host or cells: XPA-1. An excerpt:
FIG. 35. […] Data are representative of three independent experiments. FIG. 35 (b) Confocal microscopy images of human pancreatic XPA-1 and glioblastoma U251 cells during mitosis, stained for phospho-5338 CRAF (in green), α-tubulin (in red) and DNA (TOPRO-3™ in blue). Scale bar, 10 μm. White arrows indicate localization of phospho-S338 CRAF at the mitotic spindle. FIG. 35 (c) Immunoblot analysis of γ-tubulin immunoprecipitates from human colon carcinoma HCT-116 cells asynchronized and synchronized at pro-metaphase. Data are representative of three independent experiments. FIG. 35(d) Immunohistochemical staining of phospho-S338 CRAF in tumor biopsies from breast cancer patients. Scale bar, 10 μm. FIG. 35(e) Confocal microscopy images of XPA-1 cells treated with KG5, sorafenib, ZM336372, L779450 or paclitaxel and stained for CRAF (in green), γ-tubulin (in red) and DNA (TOPRO-3™ in blue). Scale bar, 10 μm. White arrows indicate localization of CRAF at the spindle pole. White circle indicates the absence of CRAF at the spindle pole.
Cells attached to cover-slips were fixed with cold methanol and permeabilized in PBS containing 0.1% triton for two minutes and blocked for 60 minutes, at room temperature with 2% BSA in PBS. Cells were stained with antibodies to CRAF (Abcam), phospho-serine 338 CRAF (SantaCruz), phospho-serine 338 CRAF (Thermo Scientific), a tubulin (Calbiochem), γ tubulin (Abcam), laminB (SantaCruz), Plk1 (Abcam), phospho-T210 Plk1 (Abcam), or phospho-T288 Aurora A (cell signaling). All primary antibodies were used at 1:100 dilution, for two hours at room temperature. After washing several times with PBS, cells were stained for two hours at room temperature, with secondary antibody specific for mouse, rabbit or goat (Invitrogen), as appropriate, diluted 1:300 and co-incubated with the DNA dye TOPRO-3™ (1:500) (Invitrogen). Samples were mounted in VECTASHIELD™ hard-set mounting media (Vector Laboratories) and imaged on a Nikon ECLIPSE C1™ confocal microscope with a 1.4 NA 60× oil-immersion lens, using minimum pinhole (30 μm). Images were captured using EZ-C1-3.50 imaging software.

The values below come from patent US20130266636A1, “METHODS FOR BLOCKING CELL PROLIFERATION AND TREATING DISEASES AND CONDITIONS RESPONSIVE TO CELL GROWTH INHIBITION” (THE REGENTS OF THE UNIVERSITY OF CALIFORNIA, priority 2010, published 2013).

Entries after “also recorded” stand apart in the source; their conditions may differ.

Sequence of CRAF (P04049 whole entry): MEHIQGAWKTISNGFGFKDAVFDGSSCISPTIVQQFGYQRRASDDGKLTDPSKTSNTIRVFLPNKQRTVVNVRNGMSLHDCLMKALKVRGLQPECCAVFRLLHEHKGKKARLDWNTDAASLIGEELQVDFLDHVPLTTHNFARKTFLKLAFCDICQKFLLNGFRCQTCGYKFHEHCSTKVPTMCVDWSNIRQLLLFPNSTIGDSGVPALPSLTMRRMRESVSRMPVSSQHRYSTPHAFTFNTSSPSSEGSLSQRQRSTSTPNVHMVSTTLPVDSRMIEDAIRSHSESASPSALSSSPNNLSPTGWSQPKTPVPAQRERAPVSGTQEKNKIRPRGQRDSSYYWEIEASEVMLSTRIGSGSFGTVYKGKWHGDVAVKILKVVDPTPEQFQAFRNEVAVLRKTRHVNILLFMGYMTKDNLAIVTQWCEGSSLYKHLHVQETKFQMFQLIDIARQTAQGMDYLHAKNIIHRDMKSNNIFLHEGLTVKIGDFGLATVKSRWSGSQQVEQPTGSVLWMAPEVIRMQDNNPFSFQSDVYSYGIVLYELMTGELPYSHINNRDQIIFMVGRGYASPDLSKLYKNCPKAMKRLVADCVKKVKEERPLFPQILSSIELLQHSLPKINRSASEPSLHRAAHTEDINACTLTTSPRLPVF

With `CSc1nc(N)cc(Oc2ccc(-c3nnc(Nc4cc(C)cc(C)c4)[nH]3)cc2)n1` [H3-7, 6-(4-{5-[(3,5-dimethylphenyl)amino]-4H-1,2,4-triazol-3-yl}phenoxy)-2-(methylsulfanyl)pyrimidin-4-amine], in assay [1], the cell viability entry was “decrease cell viability”, the “potency relative to KG5 (cell viability EC50s)” value (from here on “potency relative to KG5”) is “more potent than KG5” and the EC50 entry is on record as “approach picomolar (pM) EC50s”. Besides, in assay [2], the cell viability entry is reported as “decrease cell viability”, the “potency relative to KG5” value is listed as “more potent than KG5” and the EC50 result is “approach picomolar (pM) EC50s”. Further, in assay [3], the cell viability entry is recorded as “decrease cell viability”, the “potency relative to KG5” value is recorded as “more potent than KG5” and the EC50 entry is listed as “approach picomolar (pM) EC50s”.
As to `CCOc1nc(N)cc(Oc2ccc(-c3nnc(Nc4cccc(C(F)(F)F)c4)[nH]3)cc2)n1` [K1-72, 2-ethoxy-6-[4-(5-{[3-(trifluoromethyl)phenyl]amino}-4H-1,2,4-triazol-3-yl)phenoxy]pyrimidin-4-amine], in assay [3], the cell viability result is listed as “decrease cell viability”, the “potency relative to KG5” value was “more potent than KG5” and the EC50 result is recorded as “approach picomolar (pM) EC50s”.
On to `CNC(=O)c1cc(Oc2ccc(NC(=O)Nc3ccc(Cl)c(C(F)(F)F)c3)cc2)ccn1` [Sorafenib], for which, in assay [4], the cell proliferation result is “induce proliferation”. Further, in assay [5], the “arrest at pro-metaphase (confocal microscopy)” value was “does not arrest cells at pro-metaphase”. Moreover, the “CRAF localization to the mitotic spindle” value in assay [6] was “does not prevent CRAF localization to the mitotic spindle or midbodies”.
In the case of `CCCS(=O)(=O)Nc1ccc(F)c(C(=O)c2c[nH]c3ncc(-c4ccc(Cl)cc4)cc23)c1F` [PLX4032], the cell proliferation result in assay [4] is reported as “induce proliferation”.
Consider `CSc1nc(N)cc(Oc2ccc(-c3nnc(Nc4cc(C)ccc4C)[nH]3)cc2)n1` [H3-3, 6-(4-{5-[(2,5-dimethylphenyl)amino]-4H-1,2,4-triazol-3-yl}phenoxy)-2-(methylsulfanyl)pyrimidin-4-amine], for which, in assay [1], the cell viability entry is listed as “decrease cell viability”, the “potency relative to KG5” value is given as “more potent than KG5” and the EC50 result is reported as “approach picomolar (pM) EC50s”. Besides, in assay [2], the cell viability result was “decrease cell viability”, the “potency relative to KG5” value was “more potent than KG5” and the EC50 result was “approach picomolar (pM) EC50s”. Moreover, in assay [3], the cell viability result is reported as “decrease cell viability”, the “potency relative to KG5” value is “more potent than KG5” and the EC50 result was “approach picomolar (pM) EC50s”.
Consider `CSc1nc(N)cc(Oc2ccc(-c3nnc(Nc4ccc(C)c(C)c4)[nH]3)cc2)n1` [H3-9, 6-(4-{5-[(3,4-dimethylphenyl)amino]-4H-1,2,4-triazol-3-yl}phenoxy)-2-(methylsulfanyl)pyrimidin-4-amine], for which, in assay [3], the cell viability result is listed as “decrease cell viability”, the “potency relative to KG5” value is listed as “more potent than KG5” and the EC50 entry is “approach picomolar (pM) EC50s”.
As to `CSc1nc(N)cc(Oc2ccc(-c3nnc(Nc4cccc5c4CCCC5)[nH]3)cc2)n1` [H3-21, 2-(methylsulfanyl)-6-{4-[5-(5,6,7,8-tetrahydronaphthalen-1-ylamino)-4H-1,2,4-triazol-3-yl]phenoxy}pyrimidin-4-amine], in assay [1], the cell viability entry is given as “decrease cell viability”, the “potency relative to KG5” value was “more potent than KG5” and the EC50 result was “approach picomolar (pM) EC50s”. In assay [2], the cell viability result was “decrease cell viability”, the “potency relative to KG5” value is “more potent than KG5” and the EC50 entry is listed as “approach picomolar (pM) EC50s”. For the same molecule, in assay [3], the cell viability result is listed as “decrease cell viability”, the “potency relative to KG5” value was “more potent than KG5” and the EC50 result is “approach picomolar (pM) EC50s”.
Consider `CC(=O)O[C@H]1C(=O)[C@@]2(C)[C@H]([C@H](OC(=O)c3ccccc3)[C@]3(O)C[C@H](OC(=O)[C@H](O)[C@@H](NC(=O)c4ccccc4)c4ccccc4)C(C)=C1C3(C)C)[C@]1(OC(C)=O)CO[C@@H]1C[C@@H]2O` [paclitaxel], for which the “arrest at pro-metaphase (confocal microscopy)” value in assay [5] is on record as “arrests cells at pro-metaphase”. Moreover, the “CRAF localization to the mitotic spindle” value in assay [6] is recorded as “does not affect CRAF localization to the mitotic spindle; also recorded: CRAF remained localized to the mitotic spindle”.
As to `CSc1nc(N)cc(Oc2ccc(-c3nnc(Nc4cccc(C)c4C)[nH]3)cc2)n1` [H3-11, 6-(4-{5-[(2,3-dimethylphenyl)amino]-4H-1,2,4-triazol-3-yl}phenoxy)-2-(methylsulfanyl)pyrimidin-4-amine], in assay [3], the cell viability result was “decrease cell viability”, the “potency relative to KG5” value is reported as “more potent than KG5” and the EC50 result is on record as “approach picomolar (pM) EC50s”.
